Read-outs that look alike come from different tables or passages of the source. Numbered stars: 1 amine (or outer) side, 2 acyl side, 3 side chain; on linkers, the order of the positions; unused ones are H or OH. Bridge positions count the residues as written; N and C are the ends. Square brackets hold non-standard residues; d marks the D form. Peptide text beside a SMILES is read from it. Tartaroyl(2R,3R-(OAc)2) = CC(=O)O[C@@H](C(=O)[*:1])[C@@H](OC(C)=O)C(=O)[*:2]; Bip(2'-Me) = Cc1ccccc1-c1ccc(C[C@H](N)C(=O)O)cc1; Phe(4-COOH) = N[C@@H](Cc1ccc(C(=O)O)cc1)C(=O)O; dPhe(2-CF3) = N[C@H](Cc1ccccc1C(F)(F)F)C(=O)O; Bip = N[C@@H](Cc1ccc(-c2ccccc2)cc1)C(=O)O; dPhe(4-NH2) = Nc1ccc(C[C@@H](N)C(=O)O)cc1; Phe(4-Br) = N[C@@H](Cc1ccc(Br)cc1)C(=O)O; Phe(4-NH2) = Nc1ccc(C[C@H](N)C(=O)O)cc1; dAla(2-furyl) = N[C@H](Cc1ccco1)C(=O)O; d(hPhe) = N[C@H](CCc1ccccc1)C(=O)O; hPhe = N[C@@H](CCc1ccccc1)C(=O)O; 2Thi = N[C@@H](Cc1cccs1)C(=O)O; Cha = N[C@@H](CC1CCCCC1)C(=O)O; d2Thi = N[C@H](Cc1cccs1)C(=O)O; Suc = O=C(CCC(=O)[*:2])[*:1]; 3Abz = Nc1cccc(C(=O)O)c1; βAla = NCCC(=O)O
Target: T1, TNFα / TNFα receptor (TNFα R1/Fc) (Homo sapiens, UniProt P01375)
T1 construct: purchased R&D Systems
T1 sequence (P01375 77-233 limits assumed, species assumed): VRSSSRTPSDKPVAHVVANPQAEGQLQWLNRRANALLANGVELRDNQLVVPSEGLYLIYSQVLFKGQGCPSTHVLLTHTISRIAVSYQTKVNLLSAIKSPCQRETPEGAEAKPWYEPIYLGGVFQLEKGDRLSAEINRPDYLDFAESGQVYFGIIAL
Assay: Inhibition of binding of TNFα to the TNFα receptor (plate ELISA competition)
Details: Table 2
Protocol: The compounds listed in Table 2 below were assayed for ability to inhibit binding of TNFα to the TNFα receptor (TNFα R1/Fc). The assays were performed as described in the following procedure: TNFα (R&D Systems) was coated on high binding plate wells (Corning 96-well) at a single uniform concentration of 15 nM, 100 μL/well in PBS. The coating proceeded for 30 minutes at 37° C. then 10 minutes at 4° C. The coated plate was washed with PBST, then 250 μL/well of blocking solution (PBST 0.1% BSA, bovine serum albumin) was added and incubation proceeded for 30-45 minutes at room temperature with agitation. The solution phase competition proceeded separately with the dilutions of test compound in PBST (phosphate buffered saline with Tween 20), 2% DMSO in a polypropylene plate (Corning 96-well storage plate) with a single concentration, 8.33 nM of the high affinity receptor for TNFα (R&D Systems). This solution phase incubation proceeded for 30 minutes at room temperature with agitation and was then added to the washed TNFα coated assay plate, 100 μL/well, and was incubated for a further 30 minutes at room temperature with agitation. The assay plate was washed and 100 μL goat anti-human IgG (Fc) HRP labeled antibody in PBST, 13 pM, (KPL Cat#04-10-2) was added to each well. This incubation proceeded for 25-30 minutes at room temperature with agitation. Following this incubation step, the plate was washed and a 100 μL TMB solution (SUREBLUE™ TMB Peroxidase substrate, KPL) was added per well and allowed to stand approximately 3-5 minutes for development. The TMB reaction was stopped with the addition of 0.5N HCl and then the plate was read for absorbance at 450 nm.

[1] = read-out: Activity (IC50, inhibition of TNFα binding to TNFα R1/Fc)
[2] = Activity (IC50, inhibition of TNFα binding to TNFα R1/Fc)

## CC(=O)O[C@H]1C(=O)Nc2ccc(cc2)C[C@H](C(=O)O)NC(=O)[C@@H](Cc2ccco2)NC(=O)[C@H](Cc2ccc(Br)cc2)NC(=O)[C@@H](Cc2cccs2)NC(=O)[C@@H]1OC(C)=O [Compound 154] ([d2Thi][Phe(4-Br)][dAla(2-furyl)][dPhe(4-NH2)]-OH; linker N-4 via Tartaroyl(2R,3R-(OAc)2))
[1]
  IC50: > 100 µM

## O=C1CCC(=O)N[C@H](Cc2cccs2)C(=O)N[C@@H](Cc2ccc(-c3ccccc3)cc2)C(=O)N[C@H](Cc2ccc(O)cc2)C(=O)N[C@H](C(=O)O)Cc2ccc(cc2)N1 [Compound 59] ([d2Thi][Bip][dY][Phe(4-NH2)]-OH; linker N-4 via Suc)
[1]
  IC50: > 100 µM

## O=C1CCC(=O)N[C@H](Cc2cccs2)C(=O)N[C@@H](Cc2ccc(-c3ccccc3)cc2)C(=O)N[C@H](CCc2ccccc2)C(=O)Nc2ccc(cc2)C[C@@H](C(=O)O)N1 [Compound 551]
[1]
  IC50: 30 to 100 µM

## O=C1COc2ccc(cc2)C[C@H](C(=O)O)NC(=O)[C@H](Cc2c[nH]c3ccccc23)NC(=O)[C@@H](Cc2ccc(-c3ccccc3)cc2)NC(=O)[C@H](Cc2c[nH]c3ccccc23)N1 [Compound 731]
[1]
  IC50: 10 to 30 µM

## O=C1COc2ccc(cc2)C[C@@H](C(=O)O)NC(=O)[C@H](CCc2ccccc2)NC(=O)[C@@H](Cc2ccc(-c3ccccc3)cc2)NC(=O)[C@H](Cc2ccc(-c3ccc(Cl)cc3)cc2)N1 [Compound 702]
[1]
  IC50: < 10 µM

## O=C1COc2ccc(cc2)C[C@@H](C(=O)O)NC(=O)[C@H](CCc2ccccc2)NC(=O)[C@H](Cc2ccc(-c3ccccc3)cc2)NC(=O)[C@H](Cc2cccs2)N1 [Compound 254]
[1]
  IC50: 10 to 30 µM

## O=C1CCC(=O)N[C@H](Cc2cccs2)C(=O)N[C@@H](CC2CCCCC2)C(=O)N[C@H](Cc2ccccc2)C(=O)N[C@H](C(=O)O)Cc2ccc(cc2)N1 [Compound 84] ([d2Thi][Cha][dF][Phe(4-NH2)]-OH; linker N-4 via Suc)
[1]
  IC50: > 100 µM

## CC(=O)O[C@H]1C(=O)Nc2ccc(cc2)C[C@H](C(=O)O)NC(=O)[C@@H](CCc2ccccc2)NC(=O)[C@H](Cc2ccc(Br)cc2)NC(=O)[C@@H](Cc2ccccc2)NC(=O)[C@@H]1OC(C)=O [Compound 218] ([dF][Phe(4-Br)][d(hPhe)][dPhe(4-NH2)]-OH; linker N-4 via Tartaroyl(2R,3R-(OAc)2))
[1]
  IC50: 10 to 30 µM

## C[C@H](NC(=O)[C@@H]1Cc2ccc(cc2)OCC(=O)N[C@@H](Cc2ccc(-c3ccccc3)cc2)C(=O)N[C@H](Cc2ccc(-c3ccccc3)cc2)C(=O)N[C@@H](CCc2ccccc2)C(=O)N1)C(=O)O [Compound 572]
[1]
  IC50: < 10 µM

## O=C1CCC(=O)N[C@H](Cc2ccco2)C(=O)N[C@@H](Cc2ccc(-c3ccccc3)cc2)C(=O)N[C@H](Cc2ccccc2)C(=O)N[C@H](C(=O)O)Cc2ccc(cc2)N1 [Compound 123] ([dAla(2-furyl)][Bip][dF][Phe(4-NH2)]-OH; linker N-4 via Suc)
[1]
  IC50: 30 to 100 µM

## O=C1CCC(=O)N[C@H](Cc2cccs2)C(=O)N[C@@H](Cc2ccc(-c3ccccc3)cc2)C(=O)N[C@H](Cc2ccccc2C(F)(F)F)C(=O)N[C@H](C(=O)O)Cc2ccc(cc2)N1 [Compound 77] ([d2Thi][Bip][dPhe(2-CF3)][Phe(4-NH2)]-OH; linker N-4 via Suc)
[1]
  IC50: 30 to 100 µM

## O=C1CCC(=O)N[C@H](CCc2ccccc2)C(=O)N[C@@H](Cc2ccc(-c3ccccc3)cc2)C(=O)N[C@H](Cc2ccccc2)C(=O)N[C@H](C(=O)Nc2cccc(C(=O)O)c2)Cc2ccc(cc2)N1 [Compound 352] ([d(hPhe)][Bip][dF][Phe(4-NH2)][3Abz]-OH; linker N-4 via Suc)
[1]
  IC50: > 100 µM

## O=C1COc2ccc(cc2)C[C@@H](C(=O)N(CCS(=O)(=O)O)C(CO)(CO)CO)NC(=O)[C@H](CCc2ccccc2)NC(=O)[C@@H](Cc2ccc(-c3ccccc3)cc2)NC(=O)[C@H](Cc2ccncc2)N1 [Compound 606]
[1]
  IC50: < 10 µM

## O=C1CCC(=O)N[C@@H](Cc2cccs2)C(=O)N[C@@H](Cc2ccc(-c3ccccc3)cc2)C(=O)N[C@H](Cc2ccccc2)C(=O)N[C@@H](C(=O)O)Cc2ccc(cc2)N1 [Compound 499] ([2Thi][Bip][dF][dPhe(4-NH2)]-OH; linker N-4 via Suc)
[1]
  IC50: > 100 µM

## O=C1COc2ccc(cc2)C[C@@H](C(=O)O)NC(=O)[C@@H](Cc2ccccc2)NC(=O)[C@@H](Cc2ccc(-c3ccccc3)cc2)NC(=O)[C@@H](Cc2cccs2)N1 [Compound 209]
[1]
  IC50: > 100 µM

## Cc1ccccc1-c1ccc(C[C@@H]2NC(=O)[C@@H](Cc3cccs3)NC(=O)CCC(=O)Nc3ccc(cc3)C[C@@H](C(=O)O)NC(=O)[C@@H](Cc3ccccc3)NC2=O)cc1 [Compound 95] ([d2Thi][Bip(2'-Me)][dF][Phe(4-NH2)]-OH; linker N-4 via Suc)
[1]
  IC50: 30 to 100 µM

## O=C1N[C@H](CCc2ccccc2)C(=O)N[C@@H](Cc2ccc(-c3ccccc3)cc2)C(=O)N[C@H](Cc2ccccc2)C(=O)N[C@H](C(=O)O)Cc2ccc1cc2 [Compound 337] ([d(hPhe)][Bip][dF][Phe(4-COOH)]-OH; lactam N-4)
[1]
  IC50: > 100 µM

## O=C(O)CNC(=O)[C@@H]1Cc2ccc(cc2)OCC(=O)N[C@@H](Cc2ccncc2)C(=O)N[C@H](Cc2ccc(-c3ccccc3)cc2)C(=O)N[C@@H](CCc2ccccc2)C(=O)N1 [Compound 558]
[1]
  IC50: < 10 µM

## O=C1COc2ccc(cc2)C[C@H](C(=O)N[C@H](CCc2ccccc2)C(=O)O)NC(=O)[C@H](CCc2ccccc2)NC(=O)[C@@H](Cc2ccc(-c3ccccc3)cc2)NC(=O)[C@H](Cc2c[nH]c3ccccc23)N1 [Compound 737]
[2]
  IC50: < 10 µM

## O=C1CCNC(=O)c2ccc(cc2)C[C@@H](C(=O)O)NC(=O)[C@H](Cc2ccccc2)NC(=O)[C@H](Cc2ccc(-c3ccccc3)cc2)NC(=O)[C@H](CCc2ccccc2)N1 [Compound 463] ([βAla][hPhe][Bip]F[Phe(4-COOH)]-OH; lactam N-5)
[1]
  IC50: > 100 µM

## O=C1COc2ccc(cc2)C[C@@H](C(=O)N[C@@H](Cc2ccccc2)C(=O)O)NC(=O)[C@H](CCc2ccccc2)NC(=O)[C@@H](Cc2ccc(-c3ccccc3)cc2)NC(=O)[C@H](Cc2ccc(-c3ccccc3)cc2)N1 [Compound 574]
[1]
  IC50: > 100 µM

## O=C1COc2ccc(cc2)C[C@@H](C(=O)O)NC(=O)[C@H](CCc2ccccc2)NC(=O)[C@@H](Cc2ccc(-c3ccccc3)cc2)NC(=O)[C@H](Cc2c[nH]c3ccccc23)N1 [Compound 734]
[1]
  IC50: < 10 µM

## O=C1COc2ccc(cc2)C[C@@H](C(=O)O)NC(=O)[C@H](CCc2ccccc2)NC(=O)[C@@H](Cc2ccc(-c3ccccc3)cc2)NC(=O)[C@H](Cc2ccccn2)N1 [Compound 660]
[1]
  IC50: < 10 µM

## C[C@@H](C(=O)O)N(C)C(=O)[C@@H]1Cc2ccc(cc2)OCC(=O)N[C@@H](Cc2cccs2)C(=O)N[C@H](Cc2ccc(-c3ccccc3)cc2)C(=O)N[C@@H](CCc2ccccc2)C(=O)N1 [Compound 575]
[2]
  IC50: < 10 µM

## O=C1COc2ccc(cc2)C[C@@H](C(=O)O)NC(=O)[C@@H](Cc2ccc(F)cc2)NC(=O)[C@H](Cc2ccc(-c3ccccc3)cc2)NC(=O)[C@@H](Cc2cccs2)N1 [Compound 532]
[1]
  IC50: > 100 µM

## O=C1CCC(=O)N[C@H](Cc2cccs2)C(=O)N[C@@H](Cc2ccc(-c3ccccc3)cc2)C(=O)N[C@H](Cc2ccccc2)C(=O)N[C@H](C(=O)N2CCC[C@@H]2C(=O)O)Cc2ccc(cc2)N1 [Compound 200] ([d2Thi][Bip][dF][Phe(4-NH2)][dP]-OH; linker N-4 via Suc)
[1]
  IC50: 30 to 100 µM

## O=C(O)CCNC(=O)[C@@H]1Cc2ccc(cc2)OCC(=O)N[C@@H](Cc2ccc(-c3ccncc3)cc2)C(=O)N[C@H](Cc2ccc(-c3ccccc3)cc2)C(=O)N[C@@H](CCc2ccccc2)C(=O)N1 [Compound 579]
[1]
  IC50: < 10 µM

## O=C1CCC(=O)N[C@H](Cc2ccccc2)C(=O)N[C@@H](Cc2ccc(-c3ccccc3)cc2)C(=O)N[C@H](CCc2ccccc2)C(=O)N[C@H](C(=O)N[C@H](Cc2ccccc2)C(=O)O)Cc2ccc(cc2)N1 [Compound 455] ([dF][Bip][d(hPhe)][Phe(4-NH2)][dF]-OH; linker N-4 via Suc)
[1]
  IC50: > 100 µM

## O=C1COc2ccc(cc2)C[C@@H](C(=O)O)NC(=O)[C@@H](CCc2ccccc2)NC(=O)[C@H](Cc2ccc(-c3ccccc3)cc2)NC(=O)[C@@H](CCc2ccccc2)N1 [Compound 144]
[1]
  IC50: 10 to 30 µM

## O=C1COc2ccc(cc2)C[C@@H](C(=O)O)NC(=O)[C@@H](CCc2ccccc2)NC(=O)[C@H](Cc2ccc(Cl)cc2Cl)NC(=O)[C@@H](Cc2ccc(C(F)(F)F)cc2)N1 [Compound 148]
[1]
  IC50: 30 to 100 µM

## O=C1COc2ccc(cc2)C[C@@H](C(=O)NCCO)NC(=O)[C@H](CCc2ccccc2)NC(=O)[C@@H](Cc2ccc(-c3ccccc3)cc2)NC(=O)[C@H](Cc2ccncc2)N1 [Compound 578]
[1]
  IC50: > 100 µM

## O=C1COc2ccc(cc2)C[C@@H](C(=O)O)NC(=O)[C@H](CCc2ccccc2)NC(=O)[C@@H](Cc2ccc(-c3ccccc3)cc2)NC(=O)[C@H](Cc2ccccc2)N1 [Compound 511]
[1]
  IC50: < 10 µM

## O=C1COc2ccc(cc2)C[C@@H](C(=O)O)NC(=O)[C@H](CCc2ccccc2)NC(=O)[C@@H](Cc2ccc(-c3ccccc3)cc2)NC(=O)[C@H](Cc2cscn2)N1 [Compound 696]
[1]
  IC50: < 10 µM

Source: patent US8338565B2, “Macrocyclic compounds for inhibition of tumor necrosis factor alpha” (Ensemble Therapeutics Corporation, priority 2008, dated 2012)
